Measurements as given in patent US20140187784A1, “RADIOACTIVE QUINOLINONE DERIVATIVE AND PHARMACEUTICAL DRUG COMPRISING THE SAME” (Nihon Medi-Physics Co., Ltd., priority 2012, published 2014).
Read-outs that look alike come from different tables or passages of the source.

Experiments:
CYP11B2 [1] = biological target: T1, CYP11B2 (Homo sapiens, UniProt P19099); conditions: reported by Stefanie Hahner et al., J Clin Endocrinol Metab 2008; cited from earlier work
T1 sequence (P19099 25-503): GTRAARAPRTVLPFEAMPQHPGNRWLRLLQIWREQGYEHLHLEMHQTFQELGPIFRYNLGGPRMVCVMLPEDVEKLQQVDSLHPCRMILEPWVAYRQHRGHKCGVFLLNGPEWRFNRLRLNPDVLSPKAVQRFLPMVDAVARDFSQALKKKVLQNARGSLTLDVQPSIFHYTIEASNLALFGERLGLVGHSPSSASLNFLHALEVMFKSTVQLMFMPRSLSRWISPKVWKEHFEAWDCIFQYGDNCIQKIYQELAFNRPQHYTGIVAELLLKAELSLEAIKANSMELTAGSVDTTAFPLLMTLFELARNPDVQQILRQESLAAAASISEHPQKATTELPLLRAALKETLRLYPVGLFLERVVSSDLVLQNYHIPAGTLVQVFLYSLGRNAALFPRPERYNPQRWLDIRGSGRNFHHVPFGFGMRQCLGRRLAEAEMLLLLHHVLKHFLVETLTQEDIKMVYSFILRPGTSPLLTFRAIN

CYP11B2 [2] = biological target: T1, CYP11B2; assay: Inhibition of aldosterone production in V79-B2 cells expressing human CYP11B2 (ELISA); type: cell-based; set-up: expressed in transfected cells; host or cells: Chinese hamster lung-derived fibroblast V79 cells (V79-B2); conditions: for Selectivity factor: IC50 against cortisol production/IC50 against aldosterone production, selectivity factor for CYP11B2; for IC50: V79-B2 cells, corticosterone 100 nmol/L, 4 hours, unlabeled form, read-out: IC50 against aldosterone production; for selectivity factor compared with IMTO: selectivity factor for CYP11B2, Table 6
Protocol: (§1) Chinese hamster lung-derived fibroblast V79 cells (obtained from European Collection of Cell Cultures (ECACC) via DS Pharma Biomedical Co., Ltd.) were allowed to express human CYP11B2 and human CYP11B1 to prepare V79-B2 and V79-B1, respectively. V79-B2 or V79-B1 was inoculated to a microplate and cultured overnight. Then, corticosterone and 11-deoxycortisol were added at final concentrations of 100 nmol/L into the culture supernatants of V79-B2 and V79-B1, respectively. At the same time, iodometomidate (IMTO) or the unlabeled form of PAY15, PAY21, PAY27, or PAY54 synthesized in Example 2, 5, 8, or 12 was added at a final concentration of 10^−4 to 10^3 nmol/L into the culture supernatants. One hour later, the culture supernatant of V79-B1 was recovered, and the concentration of cortisol, which is a metabolite of CYP11B1, was measured by enzyme-linked immunosorbent assay (ELISA). Four hours later, the culture supernatant of V79-B2 was recovered, and the concentration of aldosterone, which is a metabolite of CYP11B2, was measured by ELISA. […] IC50 against cortisol production/IC50 against aldosterone production was calculated and used as a selectivity factor for CYP11B2.

human CYP11B1 = biological target: T2, human CYP11B1 (Homo sapiens, UniProt P15538); assay: Inhibition of cortisol production in V79-B1 cells expressing human CYP11B1 (ELISA); type: cell-based; conditions: 11-deoxycortisol 100 nmol/L, 1 hour, unlabeled form, read-out: IC50 against cortisol production
T2 construct: expressed in transfected cells; host or cells: Chinese hamster lung-derived fibroblast V79 cells (V79-B1)
T2 sequence (P15538 25-503): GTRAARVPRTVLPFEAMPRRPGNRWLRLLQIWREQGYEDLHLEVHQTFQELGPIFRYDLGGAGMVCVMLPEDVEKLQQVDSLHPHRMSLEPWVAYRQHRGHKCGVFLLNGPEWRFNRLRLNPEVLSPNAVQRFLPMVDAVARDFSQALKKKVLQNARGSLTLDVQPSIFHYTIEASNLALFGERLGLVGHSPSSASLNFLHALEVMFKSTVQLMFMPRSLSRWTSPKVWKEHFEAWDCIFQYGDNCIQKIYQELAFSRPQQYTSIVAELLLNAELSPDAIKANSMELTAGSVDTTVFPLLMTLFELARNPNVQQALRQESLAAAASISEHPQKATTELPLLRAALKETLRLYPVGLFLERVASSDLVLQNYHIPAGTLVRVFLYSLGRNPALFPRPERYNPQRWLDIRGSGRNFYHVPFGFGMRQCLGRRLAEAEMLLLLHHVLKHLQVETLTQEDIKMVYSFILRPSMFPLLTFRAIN
Protocol: as §1

SMILES | Selectivity factor (CYP11B2 [1]) | Selectivity factor (CYP11B2 [2]) | IC50 (CYP11B2 [2]) [nM] | IC50 (human CYP11B1) [nM] | selectivity factor compared with IMTO (CYP11B2 [2]) | selectivity for CYP11B1 versus CYP11B2 (CYP11B2 [1])
COC(=O)c1cncn1[C@H](C)c1ccc(I)cc1 [IMTO, iodometomidate, reference compound] | 0.261 | 0.93 | 0.14 | 0.13 | – | –
C[C@H](c1ccccc1)n1cncc1C(=O)OCCF [FETO, fluoroetomidate] | 0.145 | – | – | – | – | –
O=C1CCc2cc(-c3cncc(I)c3)cc3c2N1CCC3 [PAY15, 9-(5-iodopyridin-3-yl)-1,2,6,7-tetrahydro-5H-pyrido[3,2,1-ij]quinolin-3-one] | – | 223.95 | 0.63 | 141 | higher than that of IMTO | –
O=C1CCc2cc(-c3cncc(I)c3)cc3c2N1CC3 [PAY21, 8-(5-iodopyridin-3-yl)-1,2,5,6-tetrahydro-4H-pyrrolo[3,2,1-ij]quinolin-4-one] | – | 26.09 | 0.81 | 21.1 | higher than that of IMTO | –
COC(=O)c1cncn1C(C)c1ccccc1 (centres unmarked) [MTO, metomidate] | 0.275 | – | – | – | – | higher selectivity for steroid 11β-hydroxylase (CYP11B1) than that for aldosterone synthase (CYP11B2)
O=C1CCc2cc(-c3cncc(OCCF)c3)cc3c2N1CCC3 [PAY27, 9-(5-(2-fluoroethyloxy)pyridin-3-yl)-1,2,6,7-tetrahydro-5H-pyrido[3,2,1-ij]quinolin-3-one] | – | 81.42 | 0.97 | 78.6 | higher than that of IMTO | –
O=C1CCc2cc(-c3cncc(OCCF)c3)cc3c2N1CC3 [PAY54, 8-(5-(2-fluoroethyloxy)pyridin-3-yl)-1,2,5,6-tetrahydro-4H-pyrrolo[3,2,1-ij]quinolin-4-one] | – | 55.49 | 0.24 | 13.1 | higher than that of IMTO | –
